Experimental data taken from ChEMBL document CHEMBL5724914, “Linking interpersonal differences in gut microbiota composition and drug biotransformation activity” (2024).

Key:
[1] = human gut metagenome, 24 h, 2 µM
[2] = (§1) The drug is tested on Z-025 corresponding to rabbit gut metagenome with ENA study accession number: PRJEB37062 and ENA sample accession number: ERS12561824 for biotransformation under anaerobic condition. The drug concentrations were measured over 9 timepoints collected between 0 and 24 hours of incubation by liquid-chromatography-coupled mass spectrometry (LC–MS); settings: 2 µM
[3] = human gut metagenome, 24 h, 2 µM; remark: listed apart in the source
[4] = as §1, with “WLS-310” for “Z-025”, “human” for “rabbit”, “ERS12561785” for “ERS12561824”; settings: 2 µM
[5] = as §1, with “Z-012” for “Z-025”, “to” for “to rabbit gut”, “ERS12561812” for “ERS12561824”; settings: 2 µM
[6] = as §1, with “Z-014” for “Z-025”, “rat” for “rabbit”, “ERS12561814” for “ERS12561824”; settings: 2 µM
[7] = as §1, with “Z-007” for “Z-025”, “rat” for “rabbit”, “ERS12561807” for “ERS12561824”; settings: 2 µM
[8] = human gut metagenome, 24 h, 2 µM; remark: listed apart in the source
[9] = human gut metagenome, 24 h, 2 µM; remark: listed apart in the source
[10] = human gut metagenome, 24 h, 2 µM; remark: listed apart in the source
[11] = as §1, with “Z-011” for “Z-025”, “mouse” for “rabbit”, “ERS12561811” for “ERS12561824”; settings: 2 µM
[12] = as §1, with “Z-027” for “Z-025”, “to” for “to rabbit gut”, “ERS12561826” for “ERS12561824”; settings: 2 µM
[13] = human gut metagenome, 24 h, 2 µM; remark: listed apart in the source
[14] = human gut metagenome, 24 h, 2 µM; remark: listed apart in the source
[15] = as §1, with “WLS-007” for “Z-025”, “human” for “rabbit”, “ERS12561742” for “ERS12561824”; settings: 2 µM
[16] = human gut metagenome, 24 h, 2 µM; remark: listed apart in the source
[17] = as §1, with “WLS-240” for “Z-025”, “human” for “rabbit”, “ERS12561773” for “ERS12561824”; settings: 2 µM
[18] = as §1, with “Z-001” for “Z-025”, “mouse” for “rabbit”, “ERS12561801” for “ERS12561824”; settings: 2 µM
[19] = human gut metagenome, 24 h, 2 µM; remark: listed apart in the source
[20] = as §1, with “WLS-038” for “Z-025”, “human” for “rabbit”, “ERS12561745” for “ERS12561824”; settings: 2 µM

Measured: Bacterial Biotransformation
Also: call rule not given here.

CCCCC1=NC2(CCCC2)C(=O)N1Cc1ccc(-c2ccccc2-c2nnn[nH]2)cc1 [IRBESARTAN]
Compound NOT metabolized: [2] | [5] | [6] | [7] | [11] | [12] | [13]
Compound metabolized: all other assays above

COc1ccc2[nH]c([S+]([O-])Cc3ncc(C)c(OC)c3C)nc2c1 (stereo not given) [OMEPRAZOLE]
Compound NOT metabolized: [5] | [6] | [7] | [11] | [18]
Compound metabolized: all other assays above

NS(=O)(=O)c1cc2c(cc1Cl)N=C(CSCc1ccccc1)NS2(=O)=O [BENZTHIAZIDE]
Compound metabolized: [2]
Compound NOT metabolized: all other assays above

CCCCCOC(=O)Nc1nc(=O)n([C@@H]2O[C@H](C)[C@@H](O)[C@H]2O)cc1F [CAPECITABINE]
Compound NOT metabolized: [6] | [7]
Compound metabolized: all other assays above

CNCCC(Oc1ccc(C(F)(F)F)cc1)c1ccccc1 (stereo not given) [FLUOXETINE]
Compound metabolized: [13] | [17]
Compound NOT metabolized: all other assays above

CC(C)c1c(C(=O)Nc2ccccc2)c(-c2ccccc2)c(-c2ccc(F)cc2)n1CC[C@@H](O)C[C@@H](O)CC(=O)O [ATORVASTATIN]
Compound metabolized: [3] | [4] | [9] | [13] | [14] | [15] | [16] | [17] | [20]
Compound NOT metabolized: all other assays above

CC(C(=O)O)c1ccc2c(c1)Cc1cccnc1O2 (stereo not given) [PRANOPROFEN]
Compound NOT metabolized: [6] | [7]
Compound metabolized: all other assays above

O=C(CCCN1CCC(O)(c2ccc(Cl)cc2)CC1)c1ccc(F)cc1 [HALOPERIDOL]
Compound metabolized: [3] | [4] | [16] | [17]
Compound NOT metabolized: all other assays above
